Assay results taken from US20260275412A1, “A GENE SIGNATURE FOR DIAGNOSING STIMULATOR OF INTERFERON GENES (STING)-ASSOCIATED VASCULOPATHY WITH ONSET IN INFANCY (SAVI)” (INSTITUT NATIONAL DE LA SANTÉ ET DE LA RECHERCHE MÉDICALE, priority 2023, published 2026).

Assays:
SAVI patients = SAVI patients treated with JAK-inhibitors; cited from earlier work
T cell = details: cited from earlier work
STING = experiment: in vitro model of STING activation: PBMCs with ADUS100 with or without JAK-inhibitor, scRNA-seq; format: cell-based, human; details: 4 hours
Excerpt: Sequencing reads were demultiplexed and aligned to the human reference genome (hg38), and counted using the CellRanger Pipeline v6.0. Unfiltered RNA UMI counts were loaded into Seurat v4 for quality control, data integration and downstream analyses. Apoptotic cells and empty sequencing capsules were excluded by filtering out cells with low number of features (Filters were defined based on the batch: STING1: nFeature <300; STING2 and STING3<500; IFN-stim <750) or a mitochondrial content higher than 20%. Data from each sample were normalized using sctransform, before batch correction using Seurat's FindIntegratedAnchors, on the 3,000 most variable features. For the IFN-β dataset, for computational efficiency, integration anchors were determined with a canonical correlation analysis, using all unstimulated samples as reference. For the SAVI dataset, to avoid over-aligning samples, a reciprocal principal component analysis (PCA) was used to find integration anchors. On the resulting integrated datasets, we computed the PCA on the 3000 most variable genes, before computing a UMAP (on 20 PCs for SAVI and 30 PCs for IFN-stimulation). Community detection was performed using the graph-based modularity-optimization Louvain algorithm from Seurat's FindClusters function with a 1.2 resolution. Cell types labels were assigned to resulting clusters based on a manually curated list of marker genes as well as previously defined signatures of the PBMC subtypes.^58 Despite filtering for high quality cells, 11/34 clusters in the SAVI dataset and 7/36 in the IFN-β dataset stood out as poor quality clusters and were removed from further analysis. They represented low UMI cells, dying cells, cycling cells, doublets, or contaminants (progenitor cells, basophils, platelets or megakaryocytes). […] Transcriptomic signatures scores were calculated using Seurat's AddModuleScore function. […]
Human PBMC samples were obtained from Promocell (C-12907 promocell, lot 434Z036). […] Libraries were sequenced on a Novaseq (Illumina), with 26 cycles of read 1, 8 cycles of i7 index and 98 cycles of read 2. […]

[1] = PBMCs from a healthy donor, ADUS100 3 mM, vs unstimulated

Structure (SMILES) | symptoms of SAVI patients (SAVI patients) | T cell proliferation (T cell) | score of NF-κB activation (STING; [1]) | score of type I IFN response (STING; [1]) | STING-associated signature (21 genes) (STING; monocytes and DCs of stimulated PBMCs)
C[C@@H]1CCN(C(=O)CC#N)C[C@@H]1N(C)c1ncnc2[nH]ccc12 [Tofacitinib, tofacitinib] | partial improvements of the symptoms | inhibit T cell proliferation |  |  | 
Nc1ncnc2c1ncn2[C@@H]1O[C@@H]2COP(=O)([S-])O[C@@H]3[C@H](O)[C@@H](COP([O-])(=S)O[C@H]2[C@H]1O)O[C@H]3n1cnc2c(N)ncnc21.[Na+].[Na+] (some centres unmarked) [ADUS100] |  |  | increased | increased | strong increase
